Source: patent US6689813B2 (Biostatin Gyogyszerkutato-Fejleszto kft., priority 1998, dated 2004)
Where no end group is shown, it is not given here. [ ]: non-standard residue; d: D form.

Columns and labels:
Wistar rats [1] = test: 1% mustard oil-induced neurogenic inflammation (Evans blue plasma extravasation, foot skin); type: in vivo, rat
Method: Thirty minutes after acute bilateral denervation of the lower limbs (transsection of the saphenous and sciatic nerves), 50 mg/kg of Evans blue dye was administered to the tail vein of nembutal-anaesthetized (pentobarbital, 40 mg/kg i.p.) Wistar rats (150-220 g body weight; 5 to 7 animals in each group). […] The mustard oil induces a so-called neurogenic inflammation by the selective stimulation of the peripheral endings of CSPAN's and by releasing the mediators being present therein (chiefly tachykinins and CGRP); this neurogenic inflammation appears as a vasodilatation in the area of arterioles and in the form of a plasma extravasation at the venular side. Since the dye Evans blue is bound to serum albumin in the vascular bed, its precipitation and accumulation in the upper skin surface of foot are proportional to the extent of plasma extravasation. Thus, the quantitative determination of intensity of the inflammation becomes possible. After the painting with mustard oil, the animals were bled, the foot dorsum skins were cut out and their weights were determined. The amount of dye extracted during 72 hours of incubation in formamide was determined at 620 nm on a spectrophotometer (Spectromon 195). The amount (expressed as μg) of the extravasated Evans blue related to one g of wet tissue was calculated by means of the following formula:
Evans blue (μg/g)=E×V×k/m
E is the light absorption of the solution, V means the volume (ml) of the solution, m is the weight […] of the skin cut out from the foot dorsum skin; and k is a constant determined on the basis of a dilution series, which is characteristic of the dye solution.

Wistar rats [2] = test: 0.5% dextran-induced non-neurogenic inflammation (foot swelling, plethysmometer) after chronic denervation; type: in vivo, rat
Method: This test is based on the fact that a non-neurogenic, so-called clearly chemical inflammation can be induced by chemical excitation (e.g. by dextran, carrageenin, formalin) on a chronically denervated body area at least 5 days following the transsection of the nerve. These chemical agents release inflammation-inducing substances (histamine, bradykinin, PAF, prostaglandins and leucotrienes) from immunocytes, chiefly from mast cells.
Dextran solution (0.1 ml, 0.5%) is administered into both feet, underneath the plantar skin of Wistar rats (5 to 7 animals in each group) anaesthetized by nembutal (40 mg/kg i.v.) 5 days after bilateral denervation (transsection of the saphenous and sciatic nerves) of the lower limbs. The pretreated animals received somatostatin (SS), ocreotide or TT-232 (10 μg/kg i.p.) 10 minutes earlier. Before the administration of dextran (0 minute value), then after 10, 20 and 30 minutes, respectively, the swelling of the feet was measured by using a plethysmometer (Ugo Basil). Dextran elicits the so-called clearly chemical inflammation in the feet deprived of nerve supply (innervation) through the transmitters released from the mast cells.
A dose/effect ratio was determined for each substance.

rats = test: Bradykinin-induced non-neurogenic inflammation (Evans blue extravasation) after chronic denervation; type: in vivo, rat
Method: After chronic denervation (see 1.2.1.), each group of 5 rats received various doses (1, 2.5, 5, 10 or 20 μg, respectively, i.v.) of TT-232 and simultaneously Evans blue (50 mg/kg i.v.). Ten minutes later, bradykinin was injected underneath the plantar skin of the lower limbs of the rats. After 15 minutes the animals were bled and the amount of the extravasated Evans blue (expressed as […] related to the wet tissue) was determined as.described above (1.1.).

Wistar rats [3] = test: Analgetic action: vegetative (pseudoaffective) reflex responses to mustard oil and capsaicin under urethane anaesthesia; type: in vivo, rat; set-up: Increase in heart rate: unit not given here; conditions: 10 μg/kg i.p.
Description: This test is based on the synchronous registration of several components of so-called pseudoaffective reflex responses, which can be induced on animals by pain-producing stimuli [Lim, R. K. S.: J. Comp. Neurol 118, 269-294 (1962)] under urethane anaesthesia.
A significant blood pressure increase of 45 mmHg as an average pressor response, heart rate increase of 85 (as an average) and hyperpnoea (the number of respirations increases by 61 per minute as an average) can be observed in control animals on the effect of strong chemonociceptive stimuli (painting of the lower limbs with 1% mustard oil or dropping a capsaicin solution of 100 μg/ml concentration into the eye) under urethane anaesthesia.
The blood pressure, heart rate and respiration of intact Wistar rats (5 to 7 animals in each group, with a body weight of 250 to 350 g) were continuously registered for 40 minutes through an arterial cannula as well as double ramifying trachea cannula. Ten minutes before beginning the measurement, the pretreated animals received intraperitoneally 10 μg/kg of somatostatin (SS), octreotide or TT-232, respectively. Both lower limbs of the animals were painted with mustard oil in the 3rd minute and capsaicin solution was dropped into their eyes in the 23rd minute. The vegetative responses given on these nociceptive stimuli were evaluated by using a specific computer program.

unanaesthetized animals = test: Mechanical nociceptive threshold, Randall-Selitto test after carrageenin; type: in vivo; conditions: 30 minutes after carrageenin
Method: The mechanical nociceptive threshold was investigated by using the Randall-Selitto test (Ugo Basil equipment) on unanaesthetized animals. Before the beginning of the experiment, the animals were tested several times to provide their adaptation to the experimental conditions. The animals received TT-232 in various concentrations (1.25, 2.5, 5, 10 μg i.v.) and after 15 minutes, carrageenin (0.1 ml of 1% solution) was injected into the plantar skin of the lower limbs of the animals.

For “D-Phe-Cys-Tyr-D-Trp-Lys-Cys-Thr-NH2 ([dF]CY[dW]KCT-NH2; cysteine pairing not given here) [TT-232]”, the “Decrease % (Evans blue extravasation vs control)” value (Wistar rats [1]; 20 μg/kg i.p., 1% mustard oil) was 63.616%, the Evans blue extravasation (Wistar rats [1]; 20 μg/kg i.p., 1% mustard oil on feet, control 169.525) was 61.68 µg/g and the “inhibition of mustard oil-induced neurogenic inflammation (in words)” value (Wistar rats [1]; 20 μg/kg, 20 minutes after i.p. administration) was “significantly inhibited”. For the same substance, the “equipotent dose ratio vs somatostatin (times lower dose)” value (Wistar rats [1]; dose/effect relation, FIG. 2) was roughly 8 times, the “highest antiinflammatory effect relative to highest effect of somatostatin” value (Wistar rats [1]; dose/effect relation, FIG. 2) was “double” and the inhibition of inflammation (Wistar rats [1]; intravenous dose of 2.5 μg/kg, 2 hours after administration (FIG. 2.a)) was 35%. For the same substance, the “prevention of dextran-induced non-neurogenic inflammation (in words)” value (Wistar rats [2]; 10 μg/kg, even 40 minutes following the pretreatment) was “significantly prevented”, the foot swelling % (Wistar rats [2]; Table 2.a, 0.5 μg/kg, 10 minutes) was 27.63 ± 3.5% and the foot swelling % (Wistar rats [2]; Table 2.a, 0.5 μg/kg, 20 minutes) was 39.94 ± 3.07%. The foot swelling % (Wistar rats [2]; Table 2.a, 0.5 μg/kg, 30 minutes) was 41.33 ± 5.95%, the foot swelling % (Wistar rats [2]; Table 2.a, 1.0 μg/kg, 10 minutes) was 20.51 ± 2.92% and the foot swelling % (Wistar rats [2]; Table 2.a, 1.0 μg/kg, 20 minutes) was 38.07 ± 3.12%. It also gave a foot swelling % (Wistar rats [2]; Table 2.a, 1.0 μg/kg, 30 minutes) of 44.32 ± 3.18%, a foot swelling % (Wistar rats [2]; Table 2.a, 2.5 μg/kg, 10 minutes) of 20.54 ± 5.16% and a foot swelling % (Wistar rats [2]; Table 2.a, 2.5 μg/kg, 20 minutes) of 33.02 ± 4.46%. The foot swelling % (Wistar rats [2]; Table 2.a, 2.5 μg/kg, 30 minutes) was 39.59 ± 4.76%, the foot swelling % (Wistar rats [2]; Table 2.a, 5.0 μg/kg, 10 minutes) was 17.29 ± 3.13% and the foot swelling % (Wistar rats [2]; Table 2.a, 5.0 μg/kg, 20 minutes) was 27.81 ± 2.39%. The foot swelling % (Wistar rats [2]; Table 2.a, 5.0 μg/kg, 30 minutes) was 35.95 ± 2.97%, the foot swelling % (Wistar rats [2]; Table 2.a, 10 μg/kg, 10 minutes) was 17.60 ± 2.05% and the foot swelling % (Wistar rats [2]; Table 2.a, 10 μg/kg, 20 minutes) was 27.59 ± 2.5%. For the same substance, the foot swelling % (Wistar rats [2]; Table 2.a, 10 μg/kg, 30 minutes) was 36.40 ± 1.71%, the foot swelling % (Wistar rats [2]; Table 2.a, 20 μg/kg, 10 minutes) was 19.56 ± 1.71% and the foot swelling % (Wistar rats [2]; Table 2.a, 20 μg/kg, 20 minutes) was 29.73 ± 1.7%. The foot swelling % (Wistar rats [2]; Table 2.a, 20 μg/kg, 30 minutes) was 37.67 ± 2.33%, the “prevention of foot-swelling compared with diclofenac and meloxicam (in words)” value (Wistar rats [2]; Table 2.a, TT-232 concentration a thousandth part of the others) was “more effectively” and the foot swelling % (Wistar rats [2]; Table 2, 10 μg/kg i.p. 10 min before dextran, 10 minutes, control 32.97) was 24.4%. It also gave a foot swelling % (Wistar rats [2]; Table 2, 10 μg/kg i.p. 10 min before dextran, 20 minutes, control 49.695) of 34.39%, a foot swelling % (Wistar rats [2]; Table 2, 10 μg/kg i.p. 10 min before dextran, 30 minutes, control 56.68) of 29.43% and an Evans blue extravasation (rats; TT-232 1 μg/kg i.v., control (buffer) 127.35 ± 7.11) of 98.21 ± 7.44 µg/kg. It also gave an Evans blue extravasation (rats; TT-232 2.5 μg/kg i.v.) of 85.02 ± 7.33 µg/kg, an Evans blue extravasation (rats; TT-232 5 μg/kg i.v.) of 81.95 ± 7.64 µg/kg and an Evans blue extravasation (rats; TT-232 10 μg/kg i.v.) of 86.31 ± 8.74 µg/kg. The Evans blue extravasation (rats; TT-232 20 μg/kg i.v.) was 77.4 ± 4.59 µg/kg, the “protection against pseudoaffective reflex triad elicited by mustard oil and capsaicin (in words)” value (Wistar rats [3]; 10 minutes before mustard oil) was “practically complete protection” and the “Increase in respiration rate” value (Wistar rats [3]; after dropping capsaicin solution into the eye, control 47.5) was 17.85 per minute. The “Increase in mean arterial pressure” value (Wistar rats [3]; after dropping capsaicin solution into the eye, control 55) was 13 mmHg, the “Increase in heart rate” value (Wistar rats [3]; after dropping capsaicin solution into the eye, control 143) was 22.88 and the “Increase in mean arterial pressure” value (Wistar rats [3]; after painting the feet by mustard oil, control 45.4) was 4.86 mmHg. The “Increase in respiration rate” value (Wistar rats [3]; after painting the feet by mustard oil, control 60.75) was 12 per minute, the “Increase in heart rate” value (Wistar rats [3]; after painting the feet by mustard oil, control 84.8) was 13.71 and the “increase in the nociceptive threshold (analgetic effect)” value (“increase in the nociceptive threshold” below) (unanaesthetized animals; 1.25 μg i.v.) was 30%. The “increase in the nociceptive threshold” value (unanaesthetized animals; 2.5 μg i.v.) was 37%, the “increase in the nociceptive threshold” value (unanaesthetized animals; 5 μg i.v.) was 50% and the “increase in the nociceptive threshold” value (unanaesthetized animals; 10 μg i.v.) was 60%.
